Publication PMC5835976, “Synthesis, gallium labelling and characterization of P04087, a functionalized phosphatidylserine-binding peptide” (EJNMMI Radiopharmacy and Chemistry, 2017)
Each block holds one compound with its values, some of them ahead of it. Where no end group is shown, it is not given here.

Experiments:
[1] = Peptide stability in Hank's medium with 10% foetal calf serum; type: in vitro ADME; conditions: 37 °C; for Stability result: Hanks + 10% FCS, 2 h incubation, in darkness, triplicate, sampled at 0, 1 h, 2 h, TCA precipitation, LC/ES/MS; for Stability in Hanks media supplied or not with foetal calf serum: Hanks media with or without FCS, two hours
Method: A 100 μL solutions of R824 (PGDLSR), R825 (DAHSFS) and R826 (LIKKPF) in Hank’s medium and 10% FCS (foetal calf serum) were prepared and incubated (in triplicate) for 2 h at 37 °C and in complete darkness. At 0, 1 h and 2 h, 100 μL were sampled from each tube; 200 μL of 0.6 M trichloroacetic acid were added. The mixtures were then centrifuged at 20,000 g for 10 min at 4 °C. One microliter of each supernatant was then analyzed by LC/ES/MS.

[2] = type: in vitro ADME, human
Method: The metabolic stability was checked in human serum at 37 °C in presence and in absence of 1,10 phenanthroline monohydrate, a well-known metalloprotease inhibitor (Wijayanti et al. [2006]) at appropriate periods of time (0, 15, 30, 60 min). In two different tubes containing 200 μL of human serum plasma previously incubated at 37 °C was added 40 μL of ^67Ga-P04087 labelling solution. 4 μL of 1 mg/mL of 1,10 phenanthroline monohydrate in ethanol was added only in one of the two tubes. At 0, 15, 30 and 60 min, 20 μL aliquots were collected and proteins were precipitated with 200 μL of methanol. Samples were then filtered with 0.2 μm Whatman filter (13 mm) and the methanol was then evaporated with a stream of nitrogen. The resulting dry residue was dissolved in 200 μL water and then analyzed by C18-radio-HPLC using the equipment mentioned above.

[3] = system: phosphatidylserine in valve vegetations; assay: In vivo binding to PS in rat model of infective endocarditis (SPECT/CT, autoradiography); conditions: intravenous injection, intense signal in the bladder
vegetations = vegetations of experimental endocarditis; ref Rouzet et al. [2008]; cited from earlier work
Text: Otherwise, the presence of ^67Ga-P04087 uptake on autoradiography in contrast to the rapid degradation observed in vitro without the metalloprotease inhibitor, point out the discrepancies that could occur between in vitro and in vivo degradation even when low tracer amounts are used in vitro in order to avoid saturation of enzymes (García-Garayoa et al. [2001]). These positive autoradiography results extend the findings of histology experimentations on the binding of the agent to PS. However, comparatively to radiolabelled Annexin A5, the contrast was not sufficient to provide a detectable sig ...

[4] = compared with Ga-P04087; no reference given for the value; cited from earlier work

Stability in Hanks media supplied or not with foetal calf serum [1]: quickly degraded
Compound: LIKKPF [Peptide R826]
Stability result [1]: Total degradation 1 h after the start of incubation

Stability result [1]: Stable | Stability in Hanks media supplied or not with foetal calf serum [1]: stable
Compound: DAHSFS [Peptide R825]

Stability result [1]: Stable | Stability in Hanks media supplied or not with foetal calf serum [1]: stable
Compound: PGDLSR [Peptide R824]

The next lines start with the compound.

Compound: CC(C)C[C@H](NC(=O)[C@H](CC(=O)O)NC(=O)CNC(=O)[C@@H]1CCCN1C(=O)CCNC(=O)CCC(C(=O)O)N1CCN(CC(=O)O)CCN(CC(=O)O)CC1)C(=O)N[C@@H](CO)C(=O)N[C@@H](CCCNC(=N)N)C(=O)O (some centres unmarked) [Peptide 67Ga-P04087, metal not drawn]
Radiochemical purity in human serum with 1,10 phenanthroline monohydrate [2]: 100% | Renal elimination on SPECT/CT [3]: rapid renal elimination

Compound: 99mTc-AnnexinV: technetium 99m-labelled Annexin V, protein imaging agent targeting PS
uptake ratio for autoradiography (vegetations): 2 | uptake ratio for in vivo acquisitions (vegetations): 1.3 | affinity to PS [4]: 6*10^−9 M
